Laboratory results reported in paper PMC11240878, “Synthesis, enzyme inhibition assay, and molecular modeling study of novel pyrazolines linked to 4-methylsulfonylphenyl scaffold: antitumor activity and cell cycle analysis” (RSC Advances, 2024).

Experiments:
[1] = tested on: 59 cancer cell lines; assay: NCI 59 cancer cell line panel, single dose; assay type: cell-based, human; conditions: for PCE (positive cytotoxic effect: ratio of cell lines with growth inhibition >10% to total cell lines) / MG% (mean growth percent): 10 μM single dose; for MG% (mean growth percent): 59 cell lines
[2] = tested on: HL-60(TB); assay: NCI single-dose GI%, leukemia; assay type: cell-based, human; conditions: 10.0 μM in one dose
[3] = tested on: K-562; assay: NCI single-dose GI%, leukemia; assay type: cell-based, human; conditions: K-562, leukemia; 10.0 μM in one dose
[4] = tested on: MOLT-4; assay: NCI single-dose GI%, leukemia; assay type: cell-based, human; conditions: MOLT-4, leukemia; 10.0 μM in one dose
[5] = tested on: A549/ATCC; assay: NCI single-dose GI%, NSC lung; assay type: cell-based, human; conditions: 10.0 μM in one dose
[6] = tested on: EKVX; assay: NCI single-dose GI%, NSC lung; assay type: cell-based, human; conditions: 10.0 μM in one dose
[7] = tested on: HOP-62; assay: NCI single-dose GI%, NSC lung; assay type: cell-based, human; conditions: HOP-62, NSC lung; 10.0 μM in one dose
[8] = tested on: NCI-H322M; assay: NCI single-dose GI%, NSC lung; assay type: cell-based, human; conditions: 10.0 μM in one dose
[9] = tested on: NCI-H522; assay: NCI single-dose GI%, NSC lung; assay type: cell-based, human; conditions: 10.0 μM in one dose
[10] = tested on: HT29; assay: NCI single-dose GI%, colon; assay type: cell-based, human; conditions: 10.0 μM in one dose
[11] = tested on: U251; assay: NCI single-dose GI%, CNS; assay type: cell-based, human; conditions: 10.0 μM in one dose
[12] = tested on: UACC-257; assay: NCI single-dose GI%, melanoma; assay type: cell-based, human; conditions: UACC-257, melanoma; 10.0 μM in one dose
[13] = tested on: OVCAR-8; assay: NCI single-dose GI%, ovarian; assay type: cell-based, human; conditions: OVCAR-8, ovarian; 10.0 μM in one dose
[14] = tested on: SK-OV-3; assay: NCI single-dose GI%, ovarian; assay type: cell-based, human; conditions: SK-OV-3, ovarian; 10.0 μM in one dose
[15] = tested on: CAKI-1; assay: NCI single-dose GI%, renal; assay type: cell-based, human; conditions: CAKI-1, renal; 10.0 μM in one dose
[16] = tested on: TK-10; assay: NCI single-dose GI%, renal; assay type: cell-based, human; conditions: TK-10, renal; 10.0 μM in one dose
[17] = tested on: UO-31; assay: NCI single-dose GI%, renal; assay type: cell-based, human; conditions: UO-31, renal; 10.0 μM in one dose
[18] = tested on: BT-549; assay: NCI single-dose GI%, breast; assay type: cell-based, human; conditions: BT-549, breast; 10.0 μM in one dose
[19] = tested on: T-47D; assay: NCI single-dose GI%, breast; assay type: cell-based, human; conditions: 10.0 μM in one dose
[20] = tested on: RPMI-8226; assay: NCI single-dose GI%, leukemia; assay type: cell-based, human; conditions: RPMI-8226, leukemia; 10.0 μM in one dose
[21] = tested on: SR; assay: NCI single-dose GI%, leukemia; assay type: cell-based, human; conditions: 10.0 μM in one dose
[22] = tested on: NCI-H226; assay: NCI single-dose GI%, NSC lung; assay type: cell-based, human; conditions: 10.0 μM in one dose
[23] = tested on: NCI-H23; assay: NCI single-dose GI%, NSC lung; assay type: cell-based, human; conditions: 10.0 μM in one dose
[24] = tested on: HCT-116; assay: NCI single-dose GI%, colon; assay type: cell-based, human; conditions: HCT-116, colon; 10.0 μM in one dose
[25] = tested on: HCT-15; assay: NCI single-dose GI%, colon; assay type: cell-based, human; conditions: HCT-15, colon; 10.0 μM in one dose
[26] = tested on: SF-295; assay: NCI single-dose GI%, CNS; assay type: cell-based, human; conditions: SF-295, CNS; 10.0 μM in one dose
[27] = tested on: SF-539; assay: NCI single-dose GI%, CNS; assay type: cell-based, human; conditions: SF-539, CNS; 10.0 μM in one dose
[28] = tested on: LOX IMVI; assay: NCI single-dose GI%, melanoma; assay type: cell-based, human; conditions: 10.0 μM in one dose
[29] = tested on: A498; assay: NCI single-dose GI%, renal; assay type: cell-based, human; conditions: 10.0 μM in one dose
[30] = tested on: PC-3; assay: NCI single-dose GI%, prostate; assay type: cell-based, human; conditions: PC-3, prostate; 10.0 μM in one dose
[31] = tested on: DU-145; assay: NCI single-dose GI%, prostate; assay type: cell-based, human; conditions: DU-145, prostate; 10.0 μM in one dose
[32] = tested on: MDA-MB-231/ATCC; assay: NCI single-dose GI%, breast; assay type: cell-based, human; conditions: 10.0 μM in one dose
[33] = tested on: MDA-MB-468; assay: NCI single-dose GI%, breast; assay type: cell-based, human; conditions: MDA-MB-468, breast; 10.0 μM in one dose
[34] = tested on: KM12; assay: NCI single-dose GI%, colon; assay type: cell-based, human; conditions: 10.0 μM in one dose
[35] = tested on: SNB-75; assay: NCI single-dose GI%, CNS; assay type: cell-based, human; conditions: SNB-75, CNS; 10.0 μM in one dose
[36] = tested on: SK-MEL-2; assay: NCI single-dose GI%, melanoma; assay type: cell-based, human; conditions: SK-MEL-2, melanoma; 10.0 μM in one dose
[37] = tested on: SK-MEL-5; assay: NCI single-dose GI%, melanoma; assay type: cell-based, human; conditions: SK-MEL-5, melanoma; 10.0 μM in one dose
[38] = tested on: OVCAR-4; assay: NCI single-dose GI%, ovarian; assay type: cell-based, human; conditions: OVCAR-4, ovarian; 10.0 μM in one dose
[39] = tested on: MCF7; assay: NCI single-dose GI%, breast; assay type: cell-based, human; conditions: 10.0 μM in one dose

| melting point | SMILES | PCE (positive cytotoxic effect: ratio of cell lines with growth inhibition >10% to total cell lines) [1] | MG% (mean growth percent) [1] | GI% [2] | GI% [3] | GI% [4] | GI% [6] | GI% [7] | GI% [9] | GI% [10] | GI% [11] | GI% [15] | GI% [17] | GI% [19] | GI% [22] | GI% [24] | GI% [30] | GI% [32] | GI% [33] | further results |
| --- | --- | --- | --- | --- | --- | --- | --- | --- | --- | --- | --- | --- | --- | --- | --- | --- | --- | --- | --- | --- |
| 311 to 313 °C | CS(=O)(=O)c1ccc(C(=O)N2N=C(c3ccc(F)cc3)CC2c2ccccc2)cc1 (stereo not drawn) [Compound 18d, (3-(4-Fluorophenyl)-5-phenyl-4,5-dihydro-1H-pyrazol-1-yl)(4-(methylsulfonyl)phenyl)methanone] | 18/59 | 93.02% | 57% | 32% | 37% | 16% | 29% | 43% | 14% | 17% | 14% | 27% | 17% |  |  |  |  |  | GI% [5]: 24%; GI% [8]: 14%; GI% [12]: 37%; GI% [13]: 15%; GI% [14]: 13%; GI% [16]: 12%; GI% [18]: 15% |
|  | Cc1ccc(NC(=O)c2ccc(CN3CCN(C)CC3)cc2)cc1Nc1nccc(-c2cccnc2)n1 [Imatinib, reference compound] |  | 92.62% |  |  | 18% | 15.7% |  |  | 47.1% | 10.6% |  |  | 18.6% | 10.6% | 18.6% | 10.6% | 11.2% | 29.1% | MG% (mean growth percent) ([1]; listed as imatinib): 92.62%; GI% range, CNS cancer ([1]; CNS cancer subpanel, 10 μM): 11–25%; GI% range, NSCLC ([1]; NSCLC subpanel, 10 μM): 11–17%; GI% range against most of the cancer cell lines tested ([1]; all subpanels, 10 μM): < 10–47%; GI% range, breast cancer ([1]; breast cancer subpanel, 10 μM): 11–29%; GI% range, colon cancer ([1]; colon cancer subpanel, 10 μM): 12–47%; GI% range, leukemia ([1]; leukemia subpanel, 10 μM): 13–18%; GI% range, melanoma ([1]; melanoma subpanel, 10 μM): 12–22%; GI% range, ovarian cancer ([1]; ovarian cancer subpanel, 10 μM): < 10%; GI% range, prostate cancer ([1]; prostate cancer subpanel, 10 μM): 11–14%; GI% range, renal cancer ([1]; renal cancer subpanel, 10 μM): < 10–14%; GI% [20]: 12.6%; GI% [21]: 14.6%; GI% [23]: 17.1%; GI% [25]: 11.5%; GI% [26]: 15.1%; GI% [27]: 24.5%; GI% [28]: 11.6%; GI% [29]: 13.7%; GI% [31]: 14.4% |
| 216 to 218 °C | COc1ccc(C2=NN(C(=O)c3ccc(S(C)(=O)=O)cc3)C(c3ccccc3)C2)c(OC)c1 (stereo not drawn) [Compound 18n, (3-(2,4-Dimethoxyphenyl)-5-phenyl-4,5-dihydro-1H-pyrazol-1-yl)(4-(methylsulfonyl)phenyl)methanone] | 20/59 | 93.24% | 55% | 26% | 38% | 28% | 20% | 20% |  |  | 15% | 24% | 14% | 14% | 18% | 15% | 12% | 36% | GI% [34]: 12%; GI% [35]: 15%; GI% [36]: 18%; GI% [37]: 21%; GI% [38]: 12%; GI% [39]: 65% |
